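Assay format: 96-well plates, 48-hour exposure. Here, GI50 denotes the concentration required for 50% inhibition of growth. At the TGI there is no net growth.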
Tests used:
Assay in all cases: inhibition of tumour cell growth, NCI panel, 48 h
786-0 renal = system: 786-0 renal
A498 renal = system: A498 renal
A549 NSCLC = system: A549 NSCLC
ACHN renal = system: ACHN renal
BT-549 breast = system: BT-549 breast
CAKI-1 renal = system: CAKI-1 renal
CCRF-CEM leukemia = system: CCRF-CEM leukemia
COLO 205 colon = system: COLO 205 colon
DU-145 prostate = system: DU-145 prostate
HCC-2998 colon = system: HCC-2998 colon
HCT-116 colon = system: HCT-116 colon
HCT-15 colon = system: HCT-15 colon
HL-60(TB) leukemia = system: HL-60(TB) leukemia
HOP-62 NSCLC = system: HOP-62 NSCLC
HOP-92 NSCLC = system: HOP-92 NSCLC
HS 578T breast = system: HS 578T breast
HT29 colon = system: HT29 colon
IGROV1 ovarian = system: IGROV1 ovarian
K-562 leukemia = system: K-562 leukemia
KM12 colon = system: KM12 colon
LOX IMVI melanoma = system: LOX IMVI melanoma
M14 melanoma = system: M14 melanoma
MALME-3M melanoma = system: MALME-3M melanoma
MCF7 breast = system: MCF7 breast
MDA-MB-231 breast = system: MDA-MB-231 breast
MDA-MB-435 = system: MDA-MB-435
MOLT-4 leukemia = system: MOLT-4 leukemia
NCI-H226 lung = system: NCI-H226 lung
NCI-H23 lung = system: NCI-H23 lung
NCI-H460 lung = system: NCI-H460 lung
NCI-H522 lung = system: NCI-H522 lung
NCI/ADR-RES ovarian = system: NCI/ADR-RES ovarian
OVCAR-3 ovarian = system: OVCAR-3 ovarian
OVCAR-4 ovarian = system: OVCAR-4 ovarian
OVCAR-5 ovarian = system: OVCAR-5 ovarian
OVCAR-8 ovarian = system: OVCAR-8 ovarian
PC-3 prostate = system: PC-3 prostate
RPMI-8226 leukemia = system: RPMI-8226 leukemia
RXF 393 renal = system: RXF 393 renal
SF-268 CNS = system: SF-268 CNS
SF-295 CNS = system: SF-295 CNS
SF-539 CNS = system: SF-539 CNS
SK-MEL-2 melanoma = system: SK-MEL-2 melanoma
SK-MEL-28 melanoma = system: SK-MEL-28 melanoma
SK-MEL-5 melanoma = system: SK-MEL-5 melanoma
SK-OV-3 ovarian = system: SK-OV-3 ovarian
SN12C renal = system: SN12C renal
SNB-19 CNS = system: SNB-19 CNS
SNB-75 CNS = system: SNB-75 CNS
SR leukemia = system: SR leukemia
SW-620 colon = system: SW-620 colon
T-47D breast = system: T-47D breast
TK-10 renal = system: TK-10 renal
U251 CNS = system: U251 CNS
UACC-257 melanoma = system: UACC-257 melanoma
UACC-62 melanoma = system: UACC-62 melanoma
UO-31 renal = system: UO-31 renal

COc1cc(-c2cc(/C=C3\C(=O)Nc4cc(Cl)ccc43)[nH]n2)cc(OC)c1OC
GI50 (786-0 renal): 14.4 µM
TGI (786-0 renal): 60.1 µM
GI50 (A498 renal): 2.24 µM
TGI (A498 renal): 8.22 µM
GI50 (A549 NSCLC): 3.23 µM
TGI (A549 NSCLC): 15 µM
GI50 (ACHN renal): 3.48 µM
TGI (ACHN renal): 25.6 µM
GI50 (BT-549 breast): 2.54 µM
TGI (BT-549 breast): 7.58 µM
GI50 (CAKI-1 renal): 2.71 µM
TGI (CAKI-1 renal): 22.5 µM
GI50 (CCRF-CEM leukemia): 2.63 µM
TGI (CCRF-CEM leukemia): 8.43 µM
GI50 (COLO 205 colon): 1.93 µM
TGI (COLO 205 colon): 4.36 µM
GI50 (DU-145 prostate): 3.46 µM
TGI (DU-145 prostate): 14.5 µM
GI50 (HCC-2998 colon): 7.42 µM
TGI (HCC-2998 colon): > 100 µM
GI50 (HCT-116 colon): 2.74 µM
TGI (HCT-116 colon): 10.3 µM
GI50 (HCT-15 colon): 2.59 µM
TGI (HCT-15 colon): 7.77 µM
GI50 (HL-60(TB) leukemia): 2.45 µM
TGI (HL-60(TB) leukemia): 7.59 µM
GI50 (HOP-62 NSCLC): 2.16 µM
TGI (HOP-62 NSCLC): 6.46 µM
GI50 (HOP-92 NSCLC): 1.77 µM
TGI (HOP-92 NSCLC): 8.89 µM
GI50 (HS 578T breast): 2.74 µM
TGI (HS 578T breast): 9.31 µM
GI50 (HT29 colon): 3.46 µM
TGI (HT29 colon): 18.6 µM
GI50 (IGROV1 ovarian): 3.45 µM
TGI (IGROV1 ovarian): 37.2 µM
GI50 (K-562 leukemia): 2.82 µM
TGI (K-562 leukemia): 22.6 µM
GI50 (KM12 colon): 2.27 µM
TGI (KM12 colon): 6.93 µM
GI50 (LOX IMVI melanoma): 1.81 µM
TGI (LOX IMVI melanoma): 4.06 µM
GI50 (M14 melanoma): 2.42 µM
TGI (M14 melanoma): 6.99 µM
GI50 (MALME-3M melanoma): 2.71 µM
TGI (MALME-3M melanoma): 6.96 µM
GI50 (MCF7 breast): 2.26 µM
TGI (MCF7 breast): 6.39 µM
GI50 (MDA-MB-231 breast): 3.14 µM
TGI (MDA-MB-231 breast): > 100 µM
GI50 (MDA-MB-435): 1.96 µM
TGI (MDA-MB-435): 4.18 µM
GI50 (MOLT-4 leukemia): 2.48 µM
TGI (MOLT-4 leukemia): 6.43 µM
GI50 (NCI-H226 lung): 2.29 µM
TGI (NCI-H226 lung): 7.94 µM
GI50 (NCI-H23 lung): 3.84 µM
TGI (NCI-H23 lung): 18.1 µM
GI50 (NCI-H460 lung): 2.1 µM
TGI (NCI-H460 lung): 4.9 µM
GI50 (NCI-H522 lung): 2.4 µM
TGI (NCI-H522 lung): 6.09 µM
GI50 (NCI/ADR-RES ovarian): 2.74 µM
TGI (NCI/ADR-RES ovarian): 7.49 µM
GI50 (OVCAR-3 ovarian): 2.74 µM
TGI (OVCAR-3 ovarian): 15.1 µM
GI50 (OVCAR-4 ovarian): 2.91 µM
TGI (OVCAR-4 ovarian): 15 µM
GI50 (OVCAR-5 ovarian): 4.27 µM
TGI (OVCAR-5 ovarian): 78.1 µM
GI50 (OVCAR-8 ovarian): 2.17 µM
TGI (OVCAR-8 ovarian): 5.32 µM
GI50 (PC-3 prostate): 2.25 µM
TGI (PC-3 prostate): 7.83 µM
GI50 (RPMI-8226 leukemia): 2.02 µM
TGI (RPMI-8226 leukemia): 4.92 µM
GI50 (RXF 393 renal): 5.66 µM
TGI (RXF 393 renal): 42 µM
GI50 (SF-268 CNS): 3.36 µM
TGI (SF-268 CNS): 29.1 µM
GI50 (SF-295 CNS): 2.84 µM
TGI (SF-295 CNS): 8.89 µM
GI50 (SF-539 CNS): 3.92 µM
TGI (SF-539 CNS): 21.8 µM
GI50 (SK-MEL-2 melanoma): 2.75 µM
TGI (SK-MEL-2 melanoma): 7.5 µM
GI50 (SK-MEL-28 melanoma): 3.91 µM
TGI (SK-MEL-28 melanoma): 26.4 µM
GI50 (SK-MEL-5 melanoma): 1.43 µM
TGI (SK-MEL-5 melanoma): 2.79 µM
GI50 (SK-OV-3 ovarian): 3.29 µM
TGI (SK-OV-3 ovarian): 25.1 µM
GI50 (SN12C renal): 2.68 µM
TGI (SN12C renal): 14.2 µM
GI50 (SNB-19 CNS): 3.45 µM
TGI (SNB-19 CNS): > 100 µM
GI50 (SNB-75 CNS): 1.87 µM
TGI (SNB-75 CNS): 8.17 µM
GI50 (SR leukemia): 2.33 µM
TGI (SR leukemia): 5.66 µM
GI50 (SW-620 colon): 2.87 µM
TGI (SW-620 colon): 14.9 µM
GI50 (T-47D breast): 2.13 µM
TGI (T-47D breast): 6.79 µM
GI50 (TK-10 renal): 5.95 µM
TGI (TK-10 renal): 32.3 µM
GI50 (U251 CNS): 2.84 µM
TGI (U251 CNS): 14.8 µM
GI50 (UACC-257 melanoma): 2.43 µM
TGI (UACC-257 melanoma): 6.13 µM
GI50 (UACC-62 melanoma): 1.76 µM
TGI (UACC-62 melanoma): 4.3 µM
GI50 (UO-31 renal): 2.66 µM
TGI (UO-31 renal): 15.6 µM

From PubChem BioAssay (NCI)
